{"source": "patent US6677466B1", "about": "“Method for stabilizing hydrogen peroxide” (DSM Fine Chemicals Austria NFG GmbH & Co KG, priority 1999, dated 2004)", "test": "O2 evolution from RuO2.xH2O-catalysed decomposition of H2O2 with stabilizer", "format": "physicochemical", "procedure": "A 50% strength aqueous solution of H2O2 (304 mg; 4.46 mmol) was added to 454 mg (4.46 mmol) of methyl pyruvate and to 535 mg (4.46 mmol) of glyoxylic methyl ester methyl hemiacetal, respectively. In the case of methyl pyruvate, a marked evolution of heat was discovered during the addition. After one hour, the H2O2/α-keto ester mixture was mixed with 1 ml of solvent and added to a suspension of 2.5 mg of RuO2.xH2O catalyst (Aldrich) in 4 ml of solvent. The suspension was introduced into a 50 ml flask which was maintained at room temperature in a water bath.\nAs a comparison, a suspension of 2.5 mg of RuO2.xH2O catalyst (Aldrich) in 4 ml of solvent was combined with a 50% strength aqueous solution of H2O2 (304 mg; 4.46 mmol) and 1 ml of solvent without stabilizer.\nThe amount of oxygen which […] the decomposition of the hydrogen peroxide was determined as a function of time using a Brooks meter, which permitted measurement of the gas flow and of the total amount of evolved gas.\nThe amount of oxygen is defined here as % of the maximum amount to be calculated on the basis of stoichiometry.", "data": [{"smiles": "COC(=O)C(O)OC", "note": "(stereo not drawn) [GMHA, glyoxylic methyl ester methyl hemiacetal]", "values": [{"measurement": "O2 evolution V(O2) (Vmax(O2)*100%)", "setting": "solv. acetic acid, t 1 min", "result": 0, "unit": "%"}, {"measurement": "O2 evolution V(O2) (Vmax(O2)*100%)", "setting": "solv. acetic acid, t 2 min", "result": 1, "unit": "%"}, {"measurement": "O2 evolution V(O2) (Vmax(O2)*100%)", "setting": "solv. acetic acid, t 3 min", "result": 2, "unit": "%"}, {"measurement": "O2 evolution V(O2) (Vmax(O2)*100%)", "setting": "solv. acetic acid, t 4 min", "result": 2, "unit": "%"}, {"measurement": "O2 evolution V(O2) (Vmax(O2)*100%)", "setting": "solv. acetic acid, t 5 min", "result": 2, "unit": "%"}, {"measurement": "O2 evolution V(O2) (Vmax(O2)*100%)", "setting": "solv. acetic acid, t 10 min", "result": 2, "unit": "%"}, {"measurement": "O2 evolution V(O2) (Vmax(O2)*100%)", "setting": "solv. acetic acid, t 15 min", "result": 2, "unit": "%"}, {"measurement": "O2 evolution V(O2) (Vmax(O2)*100%)", "setting": "solv. acetic acid, t 20 min", "result": 2, "unit": "%"}, {"measurement": "O2 evolution V(O2) (Vmax(O2)*100%)", "setting": "solv. acetic acid, t 25 min", "result": 2, "unit": "%"}, {"measurement": "O2 evolution V(O2) (Vmax(O2)*100%)", "setting": "solv. acetic acid, t 30 min", "result": 2, "unit": "%"}, {"measurement": "O2 evolution V(O2) (Vmax(O2)*100%)", "setting": "solv. acetic acid, t 35 min", "result": 2, "unit": "%"}, {"measurement": "O2 evolution V(O2) (Vmax(O2)*100%)", "setting": "solv. acetic acid, t 40 min", "result": 2, "unit": "%"}, {"measurement": "O2 evolution V(O2) (Vmax(O2)*100%)", "setting": "solv. acetone, t 1 min", "result": 0, "unit": "%"}, {"measurement": "O2 evolution V(O2) (Vmax(O2)*100%)", "setting": "solv. acetone, t 2 min", "result": 0, "unit": "%"}, {"measurement": "O2 evolution V(O2) (Vmax(O2)*100%)", "setting": "solv. acetone, t 3 min", "result": 0, "unit": "%"}, {"measurement": "O2 evolution V(O2) (Vmax(O2)*100%)", "setting": "solv. acetone, t 4 min", "result": 0, "unit": "%"}, {"measurement": "O2 evolution V(O2) (Vmax(O2)*100%)", "setting": "solv. acetone, t 5 min", "result": 0, "unit": "%"}, {"measurement": "O2 evolution V(O2) (Vmax(O2)*100%)", "setting": "solv. acetone, t 10 min", "result": 0, "unit": "%"}, {"measurement": "O2 evolution V(O2) (Vmax(O2)*100%)", "setting": "solv. acetone, t 15 min", "result": 0, "unit": "%"}, {"measurement": "O2 evolution V(O2) (Vmax(O2)*100%)", "setting": "solv. acetone, t 20 min", "result": 0, "unit": "%"}, {"measurement": "O2 evolution V(O2) (Vmax(O2)*100%)", "setting": "solv. acetone, t 25 min", "result": 0, "unit": "%"}, {"measurement": "O2 evolution V(O2) (Vmax(O2)*100%)", "setting": "solv. acetone, t 30 min", "result": 0, "unit": "%"}, {"measurement": "O2 evolution V(O2) (Vmax(O2)*100%)", "setting": "solv. acetone, t 35 min", "result": 0, "unit": "%"}, {"measurement": "O2 evolution V(O2) (Vmax(O2)*100%)", "setting": "solv. acetone, t 40 min", "result": 0, "unit": "%"}, {"measurement": "O2 evolution V(O2) (Vmax(O2)*100%)", "setting": "solv. acetonitrile, t 1 min", "result": 3, "unit": "%"}, {"measurement": "O2 evolution V(O2) (Vmax(O2)*100%)", "setting": "solv. acetonitrile, t 2 min", "result": 3, "unit": "%"}, {"measurement": "O2 evolution V(O2) (Vmax(O2)*100%)", "setting": "solv. acetonitrile, t 3 min", "result": 3, "unit": "%"}, {"measurement": "O2 evolution V(O2) (Vmax(O2)*100%)", "setting": "solv. acetonitrile, t 4 min", "result": 3, "unit": "%"}, {"measurement": "O2 evolution V(O2) (Vmax(O2)*100%)", "setting": "solv. acetonitrile, t 5 min", "result": 3, "unit": "%"}, {"measurement": "O2 evolution V(O2) (Vmax(O2)*100%)", "setting": "solv. acetonitrile, t 10 min", "result": 3, "unit": "%"}, {"measurement": "O2 evolution V(O2) (Vmax(O2)*100%)", "setting": "solv. acetonitrile, t 15 min", "result": 3, "unit": "%"}, {"measurement": "O2 evolution V(O2) (Vmax(O2)*100%)", "setting": "solv. acetonitrile, t 20 min", "result": 3, "unit": "%"}, {"measurement": "O2 evolution V(O2) (Vmax(O2)*100%)", "setting": "solv. acetonitrile, t 25 min", "result": 3, "unit": "%"}, {"measurement": "O2 evolution V(O2) (Vmax(O2)*100%)", "setting": "solv. acetonitrile, t 30 min", "result": 3, "unit": "%"}, {"measurement": "O2 evolution V(O2) (Vmax(O2)*100%)", "setting": "solv. acetonitrile, t 35 min", "result": 3, "unit": "%"}, {"measurement": "O2 evolution V(O2) (Vmax(O2)*100%)", "setting": "solv. acetonitrile, t 40 min", "result": 3, "unit": "%"}, {"measurement": "O2 evolution V(O2) (Vmax(O2)*100%)", "setting": "solv. ethyl acetate, t 1 min", "result": 3, "unit": "%"}, {"measurement": "O2 evolution V(O2) (Vmax(O2)*100%)", "setting": "solv. ethyl acetate, t 2 min", "result": 5, "unit": "%"}, {"measurement": "O2 evolution V(O2) (Vmax(O2)*100%)", "setting": "solv. ethyl acetate, t 3 min", "result": 6, "unit": "%"}, {"measurement": "O2 evolution V(O2) (Vmax(O2)*100%)", "setting": "solv. ethyl acetate, t 4 min", "result": 7, "unit": "%"}, {"measurement": "O2 evolution V(O2) (Vmax(O2)*100%)", "setting": "solv. ethyl acetate, t 5 min", "result": 8, "unit": "%"}, {"measurement": "O2 evolution V(O2) (Vmax(O2)*100%)", "setting": "solv. ethyl acetate, t 10 min", "result": 9, "unit": "%"}, {"measurement": "O2 evolution V(O2) (Vmax(O2)*100%)", "setting": "solv. ethyl acetate, t 15 min", "result": 9, "unit": "%"}, {"measurement": "O2 evolution V(O2) (Vmax(O2)*100%)", "setting": "solv. ethyl acetate, t 20 min", "result": 9, "unit": "%"}, {"measurement": "O2 evolution V(O2) (Vmax(O2)*100%)", "setting": "solv. ethyl acetate, t 25 min", "result": 9, "unit": "%"}, {"measurement": "O2 evolution V(O2) (Vmax(O2)*100%)", "setting": "solv. ethyl acetate, t 30 min", "result": 9, "unit": "%"}, {"measurement": "O2 evolution V(O2) (Vmax(O2)*100%)", "setting": "solv. ethyl acetate, t 35 min", "result": 9, "unit": "%"}, {"measurement": "O2 evolution V(O2) (Vmax(O2)*100%)", "setting": "solv. ethyl acetate, t 40 min", "result": 9, "unit": "%"}, {"measurement": "O2 evolution V(O2) (Vmax(O2)*100%)", "setting": "solv. methanol, t 1 min", "result": 0, "unit": "%"}, {"measurement": "O2 evolution V(O2) (Vmax(O2)*100%)", "setting": "solv. methanol, t 2 min", "result": 0, "unit": "%"}, {"measurement": "O2 evolution V(O2) (Vmax(O2)*100%)", "setting": "solv. methanol, t 3 min", "result": 0, "unit": "%"}, {"measurement": "O2 evolution V(O2) (Vmax(O2)*100%)", "setting": "solv. methanol, t 4 min", "result": 0, "unit": "%"}, {"measurement": "O2 evolution V(O2) (Vmax(O2)*100%)", "setting": "solv. methanol, t 5 min", "result": 0, "unit": "%"}, {"measurement": "O2 evolution V(O2) (Vmax(O2)*100%)", "setting": "solv. methanol, t 10 min", "result": 0, "unit": "%"}, {"measurement": "O2 evolution V(O2) (Vmax(O2)*100%)", "setting": "solv. methanol, t 15 min", "result": 0, "unit": "%"}, {"measurement": "O2 evolution V(O2) (Vmax(O2)*100%)", "setting": "solv. methanol, t 20 min", "result": 0, "unit": "%"}, {"measurement": "O2 evolution V(O2) (Vmax(O2)*100%)", "setting": "solv. methanol, t 25 min", "result": 0, "unit": "%"}, {"measurement": "O2 evolution V(O2) (Vmax(O2)*100%)", "setting": "solv. methanol, t 30 min", "result": 0, "unit": "%"}, {"measurement": "O2 evolution V(O2) (Vmax(O2)*100%)", "setting": "solv. methanol, t 35 min", "result": 0, "unit": "%"}, {"measurement": "O2 evolution V(O2) (Vmax(O2)*100%)", "setting": "solv. methanol, t 40 min", "result": 0, "unit": "%"}, {"measurement": "O2 evolution V(O2) (Vmax(O2)*100%)", "setting": "solv. t-butanol, t 1 min", "result": 0, "unit": "%"}, {"measurement": "O2 evolution V(O2) (Vmax(O2)*100%)", "setting": "solv. t-butanol, t 2 min", "result": 0, "unit": "%"}, {"measurement": "O2 evolution V(O2) (Vmax(O2)*100%)", "setting": "solv. t-butanol, t 3 min", "result": 0, "unit": "%"}, {"measurement": "O2 evolution V(O2) (Vmax(O2)*100%)", "setting": "solv. t-butanol, t 4 min", "result": 0, "unit": "%"}, {"measurement": "O2 evolution V(O2) (Vmax(O2)*100%)", "setting": "solv. t-butanol, t 5 min", "result": 0, "unit": "%"}, {"measurement": "O2 evolution V(O2) (Vmax(O2)*100%)", "setting": "solv. t-butanol, t 10 min", "result": 0, "unit": "%"}, {"measurement": "O2 evolution V(O2) (Vmax(O2)*100%)", "setting": "solv. t-butanol, t 15 min", "result": 0, "unit": "%"}, {"measurement": "O2 evolution V(O2) (Vmax(O2)*100%)", "setting": "solv. t-butanol, t 20 min", "result": 0, "unit": "%"}, {"measurement": "O2 evolution V(O2) (Vmax(O2)*100%)", "setting": "solv. t-butanol, t 25 min", "result": 0, "unit": "%"}, {"measurement": "O2 evolution V(O2) (Vmax(O2)*100%)", "setting": "solv. t-butanol, t 30 min", "result": 0, "unit": "%"}, {"measurement": "O2 evolution V(O2) (Vmax(O2)*100%)", "setting": "solv. t-butanol, t 35 min", "result": 0, "unit": "%"}, {"measurement": "O2 evolution V(O2) (Vmax(O2)*100%)", "setting": "solv. t-butanol, t 40 min", "result": 0, "unit": "%"}, {"measurement": "O2 evolution V(O2) (Vmax(O2)*100%)", "setting": "solv. water, t 1 min", "result": 3, "unit": "%"}, {"measurement": "O2 evolution V(O2) (Vmax(O2)*100%)", "setting": "solv. water, t 2 min", "result": 4, "unit": "%"}, {"measurement": "O2 evolution V(O2) (Vmax(O2)*100%)", "setting": "solv. water, t 3 min", "result": 5, "unit": "%"}, {"measurement": "O2 evolution V(O2) (Vmax(O2)*100%)", "setting": "solv. water, t 4 min", "result": 6, "unit": "%"}, {"measurement": "O2 evolution V(O2) (Vmax(O2)*100%)", "setting": "solv. water, t 5 min", "result": 10, "unit": "%"}, {"measurement": "O2 evolution V(O2) (Vmax(O2)*100%)", "setting": "solv. water, t 10 min", "result": 13, "unit": "%"}, {"measurement": "O2 evolution V(O2) (Vmax(O2)*100%)", "setting": "solv. water, t 15 min", "result": 13, "unit": "%"}, {"measurement": "O2 evolution V(O2) (Vmax(O2)*100%)", "setting": "solv. water, t 20 min", "result": 13, "unit": "%"}, {"measurement": "O2 evolution V(O2) (Vmax(O2)*100%)", "setting": "solv. water, t 25 min", "result": 13, "unit": "%"}, {"measurement": "O2 evolution V(O2) (Vmax(O2)*100%)", "setting": "solv. water, t 30 min", "result": 13, "unit": "%"}, {"measurement": "O2 evolution V(O2) (Vmax(O2)*100%)", "setting": "solv. water, t 35 min", "result": 13, "unit": "%"}, {"measurement": "O2 evolution V(O2) (Vmax(O2)*100%)", "setting": "solv. water, t 40 min", "result": 13, "unit": "%"}]}]}
